Results on 14 compounds are retold here after patent US20220324862A1, “PYRIDOPYRIMIDINONE COMPOUNDS” (Acerand Therapeutics (USA) Limited, priority 2021, published 2022).

Each structure is given as a SMILES string.

The target in the assay is T1, protein-protein interaction between SOS1 and KRAS-G12D (Homo sapiens, UniProt Q07889).
T1 construct: The purified GST-SOS1 catalytic domain (residues 564-1049) was first diluted in assay buffer; made in house; host or cells: E. coli BL21 (DE3) for SOS1; E. coli BL21 carrying a BirA plasmid for KRAS-G12D
T1 sequence (Q07889 564-1049): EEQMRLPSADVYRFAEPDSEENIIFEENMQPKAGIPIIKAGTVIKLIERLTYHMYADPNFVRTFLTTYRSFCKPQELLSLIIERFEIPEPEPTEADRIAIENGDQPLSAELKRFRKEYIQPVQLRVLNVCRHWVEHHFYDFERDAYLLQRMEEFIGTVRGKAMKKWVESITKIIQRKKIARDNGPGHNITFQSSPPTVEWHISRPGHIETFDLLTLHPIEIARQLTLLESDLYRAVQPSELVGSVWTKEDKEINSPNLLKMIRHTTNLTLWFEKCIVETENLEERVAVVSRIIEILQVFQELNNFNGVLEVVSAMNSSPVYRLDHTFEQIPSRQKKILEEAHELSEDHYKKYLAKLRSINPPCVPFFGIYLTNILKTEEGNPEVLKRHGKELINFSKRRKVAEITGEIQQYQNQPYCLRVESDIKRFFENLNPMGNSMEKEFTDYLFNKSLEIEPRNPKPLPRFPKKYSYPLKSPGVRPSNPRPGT
The assay is described as follows: HTRF Based Protein-Protein Interaction Assay. It counts as binding. Conditions: HTRF; GST-SOS1 2.5 nM, KRAS-G12D 100 nM, GDP 10 uM; read-out: IC50 value, inhibition of SOS1/KRAS-G12D protein-protein interaction. From the text:
A KRAS-G12D and SOS1 binding/interaction assay was designed to measure the interaction between KRAS-G12D and SOS1 proteins. Utilizing HTRF (Homogeneous Time-Resolved Fluorescence) technology, the assay enabled simple and rapid characterization of compound and protein interaction in a high throughput format. This assay was used to examine potency of the compounds in inhibiting the protein-protein interaction between SOS1 and KRAS-G12D. […] Low IC50 values are indicative of high potency of the SOS1 inhibitor compound to disrupt SOS1 and Kras-G12D interaction.
Protein Expression and Purification. The corresponding gene sequence to human SOS1 (residues 564-1049, UniProt ID: Q07889; SEQ ID NO: 2) was synthesized and fused in frame with GST expression vector. After the desired sequence was confirmed, plasmid containing the sequence was transformed into the E. coli strain BL21 (DE3). Bacteria were growing at 37° C. in LB media containing 50 μg/ml Kanamycin to give OD600 of 0.6-0.8. Then 0.2 mM IPTG was added to induce protein expression for 16 hours at 17° C. Bacteria were harvested by centrifugation and stored at −80° C. Bacteria pellets were resuspended in lysis buffer (25 mM Tris-HCl, 500 mM NaCl, 2 mM DTT, 2.3% sucrose, 0.3% dextran-10, 1 mM PMSF, pH 7.5) and lysed using high-pressure homogenizer. The lysate was cleared by centrifugation for 30 minutes (12000 rpm at 4° C.). The supernatant containing GST-SOS1 fragment was purified sequentially through Glutathione column and gel filtration (Hiload 16/600 Superdex […] column, Cytiva). The purified GST-SOS1 fragment was confirmed by SDS-PAGE and stored in 25 mM Tris-HCl, 100 mM NaCl, 1 mM DTT, 2.3% sucrose, 0.3% dextran-10, pH 7.5 at −80° C.
Kras-G12D Protein Purification. The sequence corresponding to human KRAS-G12D (residues 1-169, UniProt P01116-2; SEQ ID NO: 1) was synthesized and fused in frame with His-AVI-TEV vector. The plasmid was transformed into the E. coli strain BL21 (containing a plasmid that can generate BirA enzyme). Bacteria were growing at 37° C. in TB media containing 100 μg/ml ampicillin and 50 μg/ml Kanamycin to give OD600 of 0.6-0.8. The 0.5 mM IPTG and 50 mg/l biotin were added to induce protein expression for 16 hours at 25° C. Bacteria were harvested by centrifugation and stored at −80° C. Bacteria pellets were re-suspended in lysis buffer (20 mM Tris-HCl, 500 mM NaCl, 5 mM MgCl2, 2 mM […], 5% glycerol, pH 8.0) and lysed using high-pressure homogenizer. The lysate was cleared by centrifugation for 30 minutes (12000 rpm at 4° C.). The supernatant containing HIS-AVI-TEV-KRAS-G12D fragment was purified sequentially through Ni-NTA column (SMART), Streptactin column (SMART), and gel filtration (Hiload 16/600 Superdex 75 pg, GE). The purified HIS-AVI-TEV-KRAS-G12D fragment was confirmed by SDS-PAGE and stored in 50 mM HEPES-NaOH, 100 mM NaCl, 1 mM DTT, 5 mM MgCl2, pH 7.5 at −80° C.
Protein-Protein Interaction Assay. An assay buffer containing 50 mM HEPES, pH 7.5, 50 mM NaCl, 0.01% Brij-35, 1 mM TCEP, 0.1% BSA was prepared, and concentration series of test compounds were generated spanning from 0.5 nM to 10 μM over 10 3-fold serial dilutions in a 384-well assay plate at a volume of 20 pL. The purified GST-SOS1 catalytic domain (residues 564-1049) was first diluted in assay buffer and 5 μl of SOS1 (final concentration 2.5 nM in assay mixture) was directly dispensed into compound plates. After a spin down at 1000 RPM for 30 seconds, the SOS1/compound mixture was incubated at 25° C. for 15 minutes to allow the reaction between SOS1 and the compound. A KRAS-G12D mixture was prepared by incubation of avi-tagged Kras-G12D (residue 1-169) and GDP in assay buffer containing 10 mM MgCl2 at room temperature for 10 minutes. A KRAS-G12D and GDP mixture (5 μL) was added to the assay plate (final KRAS-G12D was 100 nM and GDP was 10 uM). The plate was centrifuged at 1000 rpm for 30 sec and incubated at 25° C. for 60 minutes. […]
Turning to `C#C[C@@H](Nc1nc(C)nc2c(F)c(=O)n(C3(C(F)F)CC3)cc12)c1cccc(C(F)F)c1F` [Compound 27, (R)-4-((1-(3-(difluoromethyl)-2-fluorophenyl)prop-2-yn-1-yl)amino)-6-(1-(difluoromethyl)cyclopropyl)-8-fluoro-2-methylpyrido[4,3-d]pyrimidin-7(6H)-one], the IC50 was under 0.1 µM.
As for `C#C[C@@H](Nc1nc(C)nc2c(F)c(=O)n(C3(C(F)F)CC3)cc12)c1cccc(C(F)(F)F)c1C` [Compound 14, (R)-6-(1-(difluoromethyl)cyclopropyl)-8-fluoro-2-methyl-4-((1-(2-methyl-3-(trifluoromethyl)phenyl)prop-2-yn-1-yl)amino)pyrido[4,3-d]pyrimidin-7(6H)-one], the IC50 was under 0.1 µM.
For the compound `C#C[C@@H](Nc1nc(C)nc2c(Br)c(=O)n(C3(C(F)F)CC3)cc12)c1cccc(C(F)F)c1C` [Compound 39, (R)-8-bromo-4-((1-(3-(difluoromethyl)-2-methylphenyl)prop-2-yn-1-yl)amino)-6-(1-(difluoromethyl)cyclopropyl)-2-methylpyrido[4,3-d]pyrimidin-7(6H)-one], the IC50 is under 0.1 µM.
As to `C#C[C@@H](Nc1nc(C)nc2cc(=O)n(C3CC4(CNC4)C3)cc12)c1cccc(C(F)F)c1C` [Compound 37, (R)-4-((1-(3-(difluoromethyl)-2-methylphenyl)prop-2-yn-1-yl)amino)-2-methyl-6-(2-azaspiro[3.3]heptan-6-yl)pyrido[4,3-d]pyrimidin-7(6H)-one], the IC50 is under 0.1 µM.
In the case of `C#C[C@@H](Nc1nc(C)nc2cc(=O)n(C3(C)CC3)cc12)c1cccc2c1CCC2(F)F` [Compound 23, (R)-4-((1-(1,1-difluoro-2,3-dihydro-1H-inden-4-yl)prop-2-yn-1-yl)amino)-2-methyl-6-(1-methylcyclopropyl)pyrido[4,3-d]pyrimidin-7(6H)-one], the IC50 is under 0.1 µM.
For `C#C[C@@H](Nc1nc(C)nc2cc(=O)n(C(C)C(F)(F)F)cc12)c1cccc(C(F)(F)F)c1C` (mixture of isomers) [Compound 8, 2-methyl-4-(((R)-1-(2-methyl-3-(trifluoromethyl)phenyl)prop-2-yn-1-yl)amino)-6-(1,1,1-trifluoropropan-2-yl)pyrido[4,3-d]pyrimidin-7(6H)-one], the IC50 was under 0.1 µM.
With `C#C[C@@H](Nc1nc(C)nc2cc(=O)n(C3(C#C)CC3)cc12)c1cccc(C(F)F)c1F` [Compound 26, (R)-4-((1-(3-(difluoromethyl)-2-fluorophenyl)prop-2-yn-1-yl)amino)-6-(1-ethynlcyclopropyl)-2-methylpyrido [4,3-d]pyrimidin-7(6H)-one] the figure was under 0.1 µM.
For `C#C[C@@H](Nc1ncnc2cc(=O)n(C3(C(F)F)CC3)cc12)c1cccc(C(F)F)c1C` [Compound 40, (R)-4-((1-(3-(difluoromethyl)-2-methylphenyl)prop-2-yn-1-yl)amino)-6-(1-(difluoromethyl)cyclopropyl)pyrido[4,3-d]pyrimidin-7(6H)-one], the IC50 was under 0.1 µM.
Consider `C#C[C@@H](Nc1nc(C)nc2cc(=O)n(C3CCC3)cc12)c1cccc(C(F)(F)F)c1C` [Compound 3, (R)-6-cyclobutyl-2-methyl-4-((1-(2-methyl-3-(trifluoromethyl)phenyl)prop-2-yn-1-yl)amino)pyrido[4,3-d]pyrimidin-7(6H)-one], for which the IC50 is under 0.1 µM.
On to `C#C[C@@H](Nc1nc(C)nc2cc(=O)n(C3CC4(C3)CN(C)C4)cc12)c1cccc(C(F)F)c1C` [Compound 38, (R)-4-((1-(3-(difluoromethyl)-2-methylphenyl)prop-2-yn-1-yl)amino)-2-methyl-6-(2-methyl-2-azaspiro[3.3]heptan-6-yl)pyrido[4,3-d]pyrimidin-7(6H)-one], for which the IC50 is under 0.1 µM.
On to `C#C[C@@H](Nc1nc(C)nc2cc(=O)n(C3CC(F)(F)C3)cc12)c1cccc(C(F)(F)F)c1C` [Compound 11, (R)-6-(3,3-difluorocyclobutyl)-2-methyl-4-((1-(2-methyl-3-(trifluoromethyl)phenyl)prop-2-yn-1-yl)amino)pyrido[4,3-d]pyrimidin-7(6H)-one], for which the IC50 was under 0.1 µM.
With `C#C[C@@H](Nc1nc(C)nc2cc(=O)n(C3(C(F)F)CC3)cc12)c1cccc(C#N)c1F` [Compound 42, (R)-3-(1-((6-(1-(difluoromethyl)cyclopropyl)-2-methyl-7-oxo-6,7-dihydropyrido[4,3-d]pyrimidin-4-yl)amino)prop-2-yn-1-yl)-2-fluorobenzonitrile], the IC50 was under 0.1 µM.
Turning to `C#C[C@@H](Nc1nc(C)nc2cc(=O)n(C3(C(F)F)CC3)cc12)c1cccc(C(C)(F)F)c1F` [Compound 25, (R)-4-((1-(3-(1,1-difluoroethyl)-2-fluorophenyl)prop-2-yn-1-yl)amino)-6-(1-(difluoromethyl)cyclopropyl)-2-methylpyrido[4,3-d]pyrimidin-7(6H)-one], the IC50 is under 0.1 µM.
On to `C#C[C@@H](Nc1nc(C)nc2cc(=O)n(N[C@H]3CCOC3)cc12)c1cccc(C(F)F)c1C` [Compound 16, 4-(((R)-1-(3-(difluoromethyl)-2-methylphenyl)prop-2-yn-1-yl)amino)-2-methyl-6-(((S)-tetrahydrofuran-3-yl)amino)pyrido[4,3-d]pyrimidin-7(6H)-one], for which the IC50 was 0.1 to 0.2 µM.
